The test system of one assay is NCI/ADR. Description: inhibition of proliferation of tumor cell line NCI/ADR. Type of assay: cell-based. The conditions noted are these: NCI/ADR (NCI/ADR-Res) multi-drug resistant human breast cancer cell line; some results are the average of multiple runs. The procedure: (§1) The biological activities of compounds I were evaluated by measuring their inhibitory effect on the proliferation of various tumor cell lines. MCF-7, A549, SKOV-3, and CCRF-CEM are human breast cancer, lung cancer, ovary cancer, and leukemia cell lines, respectively. HL-60/MX2 is a leukemia cell line resistant to mitoxantrone. A549 t12 is an A549 subline resistant to paclitaxel. CCRF-CEM/PTX, CCRF-CEM/VBL, and CCRF-CEM/VP16 are CCRF-CEM sublines resistant to paclitaxel, vinblastine, and VP-16 (etoposide), respectively. NCI/ADR (also referred to as NCI/ADR-Res) is a multi-drug resistant human breast cancer cell line.
(§2) The biological activity of compound II-A was evaluated by measuring its inhibitory effect on the proliferation of various tumor cell lines. (The characteristics of the various cell lines employed was previously described hereinabove.)
(§3) The biological activity of compounds III was evaluated by measuring their inhibitory effect on the proliferation of various tumor cell lines. The characteristics of the cells lines used has been described hereinabove.
(§4) The biological activity of compounds IV was evaluated by measuring their inhibitory effect on the proliferation of various tumor cell lines. The characteristics of the cell lines used has been discussed hereinabove.

The next assay concerns A549. In words: inhibition of proliferation of tumor cell line A549. Type of assay: cell-based. The note with it: A549 human lung cancer cell line; some results are the average of multiple runs. How it is done: as §1, §2, §3, §4
Another assay deals with MCF-7. In words: inhibition of proliferation of tumor cell line MCF-7. The note with it: MCF-7 human breast cancer cell line, some results are the average of multiple runs. The format is cell-based. The procedure: as §1, §2, §3, §4
The next assay has as its system A549 t12. In words: inhibition of proliferation of tumor cell line A549 t12. Type of assay: cell-based, human. The conditions noted are these: A549 t12, A549 subline resistant to paclitaxel, some results are the average of multiple runs. How it is done: as §1, §2, §4
The next assay has as its system SKOV-3. In words: inhibition of proliferation of tumor cell line SKOV-3. Type of assay: cell-based. The conditions noted are these: SKOV-3 human ovary cancer cell line, some results are the average of multiple runs. How it is done: as §1, §2, §3
A further assay concerns CCRF-CEM/PTX. Description: inhibition of proliferation of tumor cell line CCRF-CEM/PTX. Type of assay: cell-based, human. The note with it: CCRF-CEM subline resistant to paclitaxel, some results are the average of multiple runs. The procedure: as §1, §2, §4
For a further assay, the system named is HL-60/MX2. Description: inhibition of proliferation of tumor cell line HL-60/MX2. The format is cell-based. The conditions noted are these: HL-60/MX2 leukemia cell line resistant to mitoxantrone, some results are the average of multiple runs. How it is done:
as §1, §2, §4

The next assay relates to CCRF-CEM. In words: inhibition of proliferation of tumor cell line CCRF-CEM. The format is cell-based. The conditions noted are these: CCRF-CEM human leukemia cell line; some results are the average of multiple runs. The procedure:
as §1, §2, §4

The subject of the next assay is CCRF-CEM/VBL. Description: inhibition of proliferation of tumor cell line CCRF-CEM/VBL. The format is cell-based, human. The note with it: CCRF-CEM subline resistant to vinblastine, some results are the average of multiple runs. The procedure: as §1, §2, §4
In a further assay the test system is CCFR-CEM/VP16. In words: inhibition of proliferation of tumor cell line CCRF-CEM/VP16. Type of assay: cell-based, human. The conditions noted are these: CCRF-CEM subline resistant to VP-16 (etoposide), some results are the average of multiple runs. How it is done: as §1, §2, §4

As usually defined, the IC50 is the midpoint of a concentration-inhibition curve.

Regarding `C=C/C=C\[C@H](C)[C@H](OC(N)=O)[C@@H](C)[C@H](O)[C@@H](C)C/C(C)=C\[C@H](C)[C@@H](O)[C@@H](C)/C=C\[C@H](C[C@@H]1OC(=O)[C@H](C)[C@@H](O)[C@H]1C)OCOCCOC` [I-B], the IC50 stood at 140 nM with NCI/ADR, 6.7 nM in the assay with A549, 5.5 nM with MCF-7 (MCF7) and 5.8 nM with A549 t12 (Homo sapiens).
As to `C=C/C=C\[C@H](C)[C@H](OC(N)=O)[C@@H](C)[C@H](O)[C@@H](C)C/C(C)=C\[C@H](C)[C@@H](O)[C@@H](C)/C=C(/C)[C@@H](O)C[C@@H]1OC(=O)[C@H](C)[C@@H](O)[C@H]1C` [II-A, 8-methyldiscodermolide], the IC50 in the assay with SKOV-3 (SK-OV-3) is 29 nM; in the assay with CCRF-CEM/PTX (Homo sapiens), 42.3 nM; in the assay on NCI/ADR, 610 nM; in the assay on HL-60/MX2 (Homo sapiens, HL60/MX2), 11 nM; with A549 it was 12 nM; in the assay with CCRF-CEM, 5.6 nM. The IC50 in the assay with CCRF-CEM/VBL (Homo sapiens) was determined as 152 nM; in the assay with MCF-7 (MCF7), 7.7 nM; in the assay with A549 t12 (Homo sapiens) it was 31 nM; in the assay with CCFR-CEM/VP16 (Homo sapiens), 9 nM.
Regarding `C=C/C=C\[C@H](C)[C@H](OC(N)=O)[C@@H](C)[C@H](O)[C@@H](C)C/C(C)=C\[C@H](C)[C@@H](O)[C@@H](C)/C=C\[C@@H](O)C[C@H]1CCC(=O)O1` [III-A], the IC50 with SKOV-3 (SK-OV-3) is 14 nM; in the assay on NCI/ADR it was 350 nM; in the assay on A549, 4.9 nM; with MCF-7 (MCF7), 2.9 nM.
In the same order, the values of `CC/C=C\[C@H](C)[C@H](OC(N)=O)[C@@H](C)[C@H](O)[C@@H](C)C/C(C)=C\[C@H](C)[C@@H](O)[C@@H](C)/C=C\[C@@H](O)C[C@H]1CCC(=O)O1` [III-B] are 15 nM, 730 nM, 46 nM and 6.4 nM.
As to `CC/C=C\[C@H](C)[C@H](OC(N)=O)[C@@H](C)[C@H](O)[C@@H](C)C/C(C)=C\[C@H](C)[C@@H](O)[C@@H](C)/C=C\[C@@H](O)C[C@@H]1OC(=O)[C@H](C)[C@@H](OC)[C@H]1C` [IV-A], the IC50 came to 65 nM in the assay with CCRF-CEM/PTX (Homo sapiens); 140 nM in the assay on NCI/ADR; 12 nM in the assay with HL-60/MX2 (Homo sapiens, HL60/MX2); 11 nM in the assay with A549; 8.6 nM in the assay with CCRF-CEM; 209 nM with CCRF-CEM/VBL (Homo sapiens). In addition, the IC50 in the assay on MCF-7 (MCF7) stood at 5.8 nM; with A549 t12 (Homo sapiens), 50 nM; in the assay with CCFR-CEM/VP16 (Homo sapiens) it was 12 nM.
With `CC/C=C\[C@H](C)[C@H](OC(N)=O)[C@@H](C)[C@H](O)[C@@H](C)C/C(C)=C\[C@H](C)[C@@H](O)[C@@H](C)/C=C\[C@@H](O)C[C@@H]1OC(=O)[C@H](C)C[C@H]1C` [IV-B], the IC50 in the assay on CCRF-CEM/PTX (Homo sapiens) was determined as 79 nM; with NCI/ADR, 250 nM; with HL-60/MX2 (Homo sapiens, HL60/MX2) it was 4.1 nM; in the assay with A549, 6.5 nM; in the assay with CCRF-CEM, 4.4 nM; with CCRF-CEM/VBL (Homo sapiens), 416 nM. Further, the figures for the half-maximal inhibitory concentration (IC50) in the assay with MCF-7 (MCF7), with A549 t12 (Homo sapiens) and in the assay with CCFR-CEM/VP16 (Homo sapiens) were 3.8 nM, 12 nM and 8.4 nM, respectively.
Turning to (+)-Discodermolide [reference compound], the IC50 came out at 31.7 nM in the assay with SKOV-3; 92.8 nM with CCRF-CEM/PTX; 247 nM in the assay on NCI/ADR; 150 nM in the assay on HL-60/MX2; 24.4 nM in the assay with A549; 14.8 nM with CCRF-CEM. Also, the 50% inhibitory concentration (IC50) in the assay with CCRF-CEM/VBL was 158 nM; with MCF-7, 14.1 nM; with A549 t12 it was 26.7 nM; with CCFR-CEM/VP16, 53 nM.
